Test results as given in US4225595A, “Piperazine phosphates and phosphonate insecticides” (priority 1979, dated 1980).
In brackets after ≈: the same amount, converted by molar mass.

Experiments:
[1] = test system: Black Bean Aphid [Aphis fabae (Scop.)]; assay: Black Bean Aphid (BBA) plant spray assay, mortality after three days; format: in vivo; conditions: spray on infested nasturtium plants
From the text: (§1) Screening was initiated at a maximal concentration level believed to be injurious to the insect population. The initial level should not be understood as representing a maximum at which a viable test for insecticidal activity can be conducted. […]
(§2) Nasturtium plants, Tropaeolum sp., approximately five centimeters (cm) high were transplanted into sandy loam soil in three-inch clay pots. Each pot was infested with 25-50 black bean aphids of mixed ages. Twenty-four hours later the pots were sprayed to the point of run-off with 50--50 acetone-water solutions of the test compounds.
(§3) Mortality rates were recorded after the infested plants had been held in the greenhouse for three days. Test concentrations ranged from 0.05% down to that at which 50% mortality occurs. Green Peach Aphid [Myzus persicae (Sulzer)], (GPA)
(§4) A less than 50% mortality rate at the initial concentration is indicated by a "greater than" sign (>). An approximately 50% mortality rate is indicated by the initial concentration rate. Other results are the dilutions at which an LD50 was achieved.

[2] = test system: Southern House Mosquito Larvae (Culex pipiens quinquefasciatus); assay: Southern House Mosquito larvae (M) assay, mortality 48 hours after treatment; format: in vivo; conditions: third-instar larvae in aqueous solution, initial 1 ppm, read-out: LD50 M
Description: (§5) Screening was initiated at a maximal concentration level believed to be injurious to the insect population. The initial level should not be understood as representing a maximum at which a viable test for insecticidal activity can be conducted.
Tobacco budworms were tested in the same manner as the cabbage looper. Romaine lettuce (Latuca sativa) leaves provided the substrate. Southern House Mosquito Larvae (Culex pipiens quinquefasciatus), (M)
Ten third-instar larvae were placed in a six ounce wax paper cup containing 100 ml of an aqueous solution of the test compounds at a concentration of 1 ppm. The treated larvae were stored at 70° F. (21.5° C.) and mortality was recorded 48 hours after treatment. Two-Spotted Mite [Tetranychus urticae (Koch)], (2SM)
as §4

[3] = test system: Lygus Bug [Lygus hesperus (Knight)]; assay: Lygus Bug (LB) direct spray assay, mortality 48 hours later; format: in vivo; conditions: adults, initial 0.05%
Description: as §5
(§6) Mobile insects, such as houseflies, German cockroaches, Lygus bugs, were contained for treatment in circular cardboard cages covered with cellophane on the bottom and tulle netting on the top.
(§7) Test compounds were diluted in a 50--50 acetonewater solution. Two cubic centimeters (cc) of the compound solutions were sprayed through a DeVilbiss type EGA hand spray gun into cages each containing 10 one-month-old German cockroach nymphs.
Lygus Bug [Lygus hesperus (Knight)], (LB)--Direct Spray Assay
(§8) The species was treated in the same manner as the German cockroach. The cages contained one string beam pod and 10 adult Lygus bugs. The percent mortality was recorded 48 hours later. Test concentrations ranged from 0.05% down to that at which approximately 50% mortality occurs. Saltmarsh Caterpillar [Estigmene acrea (Drury)], (SMC)--Leaf Dip Assay
as §4

[4] = test system: German Cockroach [Blatella germanica (Linne)]; assay: German Cockroach (GR) direct spray, mortality 7 days later; format: in vivo; conditions: one-month-old nymphs, initial 0.1%
Description: as §5, §6
(§9) The insecticidal properties were tested in the same manner as for black beam aphids with the substitution of the nasturtiums by radish plants, Rhaphanus sativus. German Cockroach [Blatella germanica (Linne)], (GR)--Direct Spray
as §7
The percent mortality was recorded 7 days later. Test concentrations ranged from 0.1% down to that at which approximately 50% mortality occurs.
as §4

[5] = test system: Green Peach Aphid [Myzus persicae (Sulzer)]; assay: Green Peach Aphid (GPA) plant spray assay; format: in vivo; conditions: spray on infested radish plants, three days
From the text: as §5, §2, §3, §9, §4

[6] = test system: Housefly [Musca domestica (Linn.)]; conditions: topical, 48 h
Description: Housefly [Musca domestica (Linn.)], (HF)--Contact Residue Assay
Test compounds were diluted in acetone and aliquots were pipetted onto the bottom of 55×15 millimeter (mm) aluminum dishes. One ml of acetone containing 0.02% peanut oil was added to each dish to insure even spreading. After all solvents had evaporated the dishes were placed in cages each containing 25 one to two day old female houseflies. Each cage contained a sugar-water cotton plug for sustanence of the flies.
Mortality rates were recorded after 48 hours. Test levels ranged from 10 μ/25 .female. houseflies down to that at which approximately 50% mortality occurs.

[7] = test system: Two-Spotted Mite [Tetranychus urticae (Koch)]; assay: Two-Spotted Mite (2SM) plant dip assay, mortality seven days later; format: in vivo; conditions: for LD50 2SM Adults: adult mites; for LD50 2SM Eggs: eggs (nymphs hatching after treatment)
From the text: as §1
Pinto bean plants (Phaseolus vulgaris) approximately 10 cm high were transplanted into sandy loam soil in three-inch clay pots. The plants were thoroughly infested with two-spotted mites of mixed ages and sexes. Twenty-four hours after infestation the plants were inverted and dipped for 2-3 seconds in 50--50 acetone-water solutions of the test compounds.
Mortality ratings for both adult mites and nymphs hatching after treatment were taken seven days later. Test concentrations ranged from 0.05% down to that at which 50% mortality occurs.
as §4

[8] = test system: Cabbage Looper [Trichoplusia ni (Hubner)]; assay: Cabbage Looper (CL) leaf dip assay; format: in vivo; conditions: squash cotyledons, initial 0.1%
Description: as §5
(§10) Test compounds were diluted in a 50--50 acetone-water solution. Approximately 1×1.5 inch sections of curly dock (Rumex crispus) leaves were immersed in the test solution for 2-3 seconds. After drying on a wire screen, the leaves were placed in petri dishes containing a moistened piece of filter paper. Each dish was infested with 5 secondinstar saltmarsh larvae.
(§11) Mortality of the larvae was recorded 48 hours later. A piece of synthetic media was added to the dishes containing surviving larvae. The larvae were then observed for 5 additional days for delayed effects of the test compounds. Test concentrations ranged from 0.05% down to that at which approximately 50% mortality occurs. Cabbage Looper [Trichoplusia ni (Hubner)], (CL)
The effectiveness of the compounds was tested in the same manner as for the saltmarsh caterpillar with two exceptions. Cotyledons of hyzini squash (Calabacita abobrinha, were substituted for curly dock leaves and the initial test concentration was 0.1%. Tobacco Budworm [Heliothis virescens (Fabricius)], (TBW)
as §4

[9] = test system: Tobacco Budworm [Heliothis virescens (Fabricius)]; conditions: leaf dip, Romaine lettuce leaves
Description: Mortality of the larvae was recorded 48 hours later. A piece of synthetic media was added to the dishes containing surviving larvae. […] Test concentrations ranged from 0.05% down to that at which approximately 50% mortality occurs.

[10] = test system: Saltmarsh Caterpillar [Estigmene acrea (Drury)]; assay: Saltmarsh Caterpillar (SMC) leaf dip assay; format: in vivo; conditions: curly dock leaves, second-instar larvae, 48 hours + 5 days
Description: as §5, §8, §10, §11, §4

| SMILES | LD50 BBA [1] | LC50 [2] [µg/mL] | LD50 LB [3] | LD50 GR [4] | LD50 GPA [5] | LD50 HF [6] [μg/25] | LD50 2SM Adults [7] | LD50 2SM Eggs [7] | LD50 CL [8] | LD50 TBW [9] | LD50 SMC [10] |
| --- | --- | --- | --- | --- | --- | --- | --- | --- | --- | --- | --- |
| CCOP(=S)(OCC)SCC(=O)N1CCN(C(=O)OC)CC1 [Compound 3, 1-N-methoxycarbo-4-N-O,O-diethylphosphorodithioylacetyl piperazine] | .001% | > 1 | > .05% | > .1% | .01% | > 10 | < .05% | < .05% | > .1% | > .1% | – |
| CCOC(=O)N1CCN(C(=O)CSP(=S)(OC)OC)CC1 [Compound 10, 1-N-ethoxycarbo-4-N-O,O-dimethylphosphorodithioylacetyl piperazine] | .0002% | 1 (≈ 2.81 µM) | > .05% | > .1% | .002% | > 10 | .002% | .005% | > .1% | > .05% | – |
| CCOC(=O)N1CCN(C(=O)CSP(=S)(OC)OC)C(C)C1 (stereo not shown) [Compound 11, 1-N-ethoxycarbo-4-N'-O,O-dimethylphosphorodithioylacetyl-3-methyl piperazine] | .002% | 1 (≈ 2.7 µM) | > .05% | > .1% | .03% | > 10 | < .05% | < .05% | > .1% | .1% | .05% |
| CCOC(=O)N1CCN(C(=O)CSP(=S)(OCC)OCC)CC1 [Compound 12, 1-N-ethoxycarbo-4-N-O,O-diethylphosphorodithioylacetyl piperazine] | .001% | > 1 | > .05% | > .1% | .008% | > 10 | .001% | .002% | > .1% | > .1% | > .05% |
| CCOC(=O)N1CCN(C(=O)CSP(=S)(OCC)OCC)C(C)C1 (stereo not shown) [Compound 13, 1-N-ethoxycarbo-4-N'-O,O-diethylphosphorodithioylacetyl-3-methyl piperazine] | .003% | > 1 | > .05% | > .1% | .008% | > 10 | .003% | .006% | > .1% | > .05% | > .05% |
| CCOC(=O)N1CCN(C(=O)CSP(=O)(OCC)OCC)C(C)C1 (stereo not shown) [Compound 14, 1-N-carboethoxy-4-N'-O,O-diethylphosphoromonothioylacetyl-3-methyl piperazine] | .0005% | > 1 | > .05% | > .1% | .005% | > 10 | < .05% | < .05% | > .1% | > .1% | – |
| COP(=S)(OC)SCC(=O)N1CCN(C(=O)OC(C)C)CC1 [Compound 18, 1-N-ispropoxycarbo-4-N-O,O-dimethylphosphorodithioylacetyl piperazine] | .0005% | 1 (≈ 2.7 µM) | > .05% | > .1% | .005% | > 10 | < .05% | < .05% | > .1% | > .1% | > .05% |
| CCOP(=S)(OCC)SCC(=O)N1CCN(C(=O)Oc2ccccc2)CC1 [Compound 23, 1-N-phenyloxycarbo-4-N-O,O-diethylphosphorodithioylacetyl piperazine] | .002% | 1 (≈ 2.31 µM) | > .05% | > .1% | .008% | > 10 | < .05% | < .05% | .1% | > .1% | – |
| CCOP(=S)(OCC)SCC(=O)N1CCN(C(=O)SC)CC1 [Compound 27, 1-N-methylthiocarbo-4-N-O,O-diethylphosphorodithioylacetyl piperazine] | .001% | > 1 | > .05% | > .1% | .01% | > 10 | < .05% | < .05% | > .1% | > .1% | – |
| COP(=S)(OC)SCC(=O)N1CCN(C(=O)SC(C)(C)C)CC1C (stereo not shown) [Compound 32, 1-N-carbo-t-butylthio-4-N'-O,O-dimethylphosphorodithioylacetyl-3-methyl piperazine] | > .05% | > 1 | – | – | – | > 10 | > .05% | > .05% | – | > .05% | – |
| CCOP(=S)(OCC)SCC(=O)N1CCN(C(=O)SC(C)(C)C)CC1C (stereo not shown) [Compound 33, 1-N-carbo-t-butylthio-4-N'-O,O-diethylphosphorodithioylacetyl-3-methyl piperazine] | > .005% | – | – | – | – | > 10 | – | – | – | > .05% | – |
